Columns and labels:
Assay in all cases: MIC serial dilution assay
Format in all cases: cell-based
[1] = test system: Mycolicibacterium smegmatis; conditions: Mycolicibacterium smegmatis ATCC700084; overnight, 37 °C; reference kanamycin 0.1 mg/mL
Experimental: (§1) Compounds 1, 2, 4 and 5 were dissolved in MeOH (1 mg/mL) for the antimicrobial activity assay, while compound 3 was dissolved in MeOH: DMSO 9+1 (1 mg/mL). The solvents were also used as negative controls.
(§2) Minimum inhibitory concentrations (MIC) were determined in a serial dilution assay, as described previously; a detailed protocol can be found in the Supporting Information. The compounds (1 mg/mL) were diluted to a range of 66.7 to 0.52 µg/mL and incubated with the test organisms overnight. Inhibition of growth was visually evaluated the next day: the MIC is defined as the lowest concentration of the test compound where no growth of the test organism was observed. Various test organisms of fungal and bacterial origin were tested to cover a broad range of microorganisms. This selection is also being used as a standard test panel in our attempts to discover new anti-infectives, as it represents a broad spectrum of pathogens of clinical interest, as well as sensitive indicator strains (bacteria: Bacillus subtilis, Staphylococcus aureus, Micrococcus luteus, Chromobacterium violaceum, Escherichia coli and Pseudomonas aeruginosa; mycobacteria: Mycolicibacterium smegmatis and fungi: Candida albicans, Schizosaccharomyces pombe, Mucor hiemalis, Pichia anomala and Rhodotorula glutinis).
(§3) Protocol: Antimicrobial Activi ty Assay
(§4) The assay was conducted as a minimum inhi bitory concentration (MIC) assay in 96-well ro und-bottom mi crotiter pl ate s usi ng the p ar ameter s su mm ari zed i n T a bl e S 1 and as already described i n [S1].
(§5) Stocks of the test organi sms were generated by growing the organisms o ver ni ght i n 50 mL shaki ng fl asks fi ll ed wi th 25 mL of the growth medi um at 140 rpm (for media and temperatures see Table S1). If the organisms were well grown the ne xt day, which was checked by occurrence of an optical density (OD)>30 of the suspension (OD600 nm for bacteria, OD548 nm for fungi and M. smegma tis) , aliquots of these were stored i n 1.5 mL reaction tube s in a freezer at −80 °C for up to 12 mo nths . Upon use, aliquots were unth awed and the OD of the suspension measured and adjusted by diluting with the respective growth medi um. OD600 nm w as adj usted to 0.01 and OD548 nm to 0.1.
(§6) Subse que ntly, 150 µL o f the adjusted suspensions were added to all wells of a 96-wel l microtiter pl ate (one test organi sm per plate). In row A, additional 130 µL of suspensions plus 20 µL of the test compounds (1 mg/mL) and the controls (one compound/column) were added. MeOH as well as MeOH:DMSO 9+1 were used as negative controls, while different positive controls (refer ences) were used for the test organisms (see Tabl e S1). Then, starti ng from row A, 150 µ L of the suspension were transferred to the next row, the contents thoroughly mixed, and 150 µ L transferred to the following row.
(§7) The remaining 150 µ L after row H were discarded. […]
(§8) compounds, ranging from 66.7 µg/mL i n row A to 0.52 µg/mL i n row H.
(§9) The microtiter plates were then incubated overnight o n a microplate shaker at 800 rpm at 30 or 37 °C (see Table S1) and were visually evaluated the next day. The MIC is defined as the lowest concentration were no growth of the test organism was o bserved. A lower MIC thus corresponds to a higher antimicrobial activity of the test compound.
(§10) Table S1: MIC assay ex per i men t parameters test organism strain No. growth incubation positive control (reference) […]
(§11) Rhodotorula glutinis DSM10134 MYC 3 30 nyst ati n 1.0 mg/mL
(§12) 1 MHB: Müller-Hinton Broth (SN X927.1, Ca r l Roth GmbH, Karlsruhe, Germany) 2 7H9+ADC: Middlebrook 7H9 Broth Base + Middlebrook ADC Growth Supplement (SN M0678+M0553, Merck, Darmstadt, Germany)
(§13) 3 MYC: 1 % w/v, bacto peptone, 1% w/v yeast extract, 2 % w /v glycerol, pH 6.3 [S1] Helaly, S.E.; Ashrafi, S.; Teponno, R.B.; Bernecker, S.; Dababat, A.A.; Maier, W.; Stadler, M.
(§14) Nematicidal Cyclic Lipodepsipeptides and a Xanthocillin Derivative from a Phaeosphariaceous […]

[2] = test system: Rhodotorula glutinis; conditions: Rhodotorula glutinis DSM10134; overnight, 30 °C; reference nystatin 1 mg/mL
Experimental: as §1, §2, §3, §4, §5, §6, §7, §8, §9, §10, §11, §12, §13, §14

[3] = test system: Candida albicans; conditions: Candida albicans DSM1665; overnight, 30 °C; reference nystatin 1 mg/mL
Experimental: as §1, §2, §3, §4, §5, §6, §7, §8, §9, §10
Candida albicans DSM1665 MYC 3 30 nyst ati n 1.0 mg/mL […]
as §11, §12, §13, §14

[4] = test system: Schizosaccharomyces pombe; conditions: Schizosaccharomyces pombe DSM70572; overnight, 30 °C; reference nystatin 1 mg/mL
Experimental: as §1, §2, §3, §4, §5, §6, §7, §8, §9, §10
Schizosaccharomyces DSM70572 MYC 3 30 nyst ati n 1.0 mg/mL […]
as §11, §12, §13, §14

[5] = test system: Mucor hiemalis; conditions: Mucor hiemalis DSM2656; overnight, 30 °C; reference nystatin 1 mg/mL
Experimental: as §1, §2, §3, §4, §5, §6, §7, §8, §9, §10
Mucor hiemalis DSM2656 MYC 3 30 nyst ati n 1.0 mg/mL […]
as §11, §12, §13, §14

[6] = test system: Pichia anomala; conditions: Pichia anomala DSM6766; overnight, 30 °C; reference nystatin 1 mg/mL
Experimental: as §1, §2, §3, §4, §5, §6, §7, §8, §9, §10
Pichia anomala DSM6766 MYC 3 30 nyst ati n 1.0 mg/mL
as §11, §12, §13, §14

Row | SMILES | Minimum Inhibitory Concentration (MIC) [1] | Minimum Inhibitory Concentration (MIC) [2] | Minimum Inhibitory Concentration (MIC) [3] | Minimum Inhibitory Concentration (MIC) [4] | Minimum Inhibitory Concentration (MIC) [5] | Minimum Inhibitory Concentration (MIC) [6]
1 | NC[C@H]1O[C@H](O[C@H]2[C@H](O)[C@@H](O[C@H]3O[C@H](CO)[C@@H](O)[C@H](N)[C@H]3O)[C@H](N)C[C@@H]2N)[C@H](O)[C@@H](O)[C@@H]1O [kanamycin, reference compound] | 3.3 ^4 µg/mL |  |  |  |  | 
2 | C[C@@H]1[C@H](O)[C@@H](C)/C=C/C=C/CC/C=C/C=C/C=C/C=C/C(O[C@H]2O[C@H](C)[C@@H](O)[C@H](N)[C@@H]2O)CC2O[C@](O)(CC(O)C(O)CCC(O)CC(O)CC(O)CC(=O)O[C@H]1C)CC(O)C2C(=O)O (stereo partly drawn) [nystatin, reference compound] |  | 16.7 ^5 µg/mL | 66.7 ^5 µg/mL | 33.3 ^5 µg/mL | 66.7 ^5 µg/mL | 66.7 ^5 µg/mL
